Values joined by “and” are separate entries in the source; they are usually repeats but may differ in a detail not shown here. Equal values may be shown once. Read-outs that look alike come from different tables or passages of the source.
How the values were obtained:
[1] = tested on: vacuolar membrane vesicles purified from DTY167 cells (ycf1Δ mutant); assay type: biochemical, Saccharomyces cerevisiae; conditions: for DNP-GS uptake as percentage of control plus the compound indicated: 10 min
Procedure: (§1) For the routine preparation of vacuolar membrane vesicles, 15 ml of stationary phase cultures of DTY165 or DTY167 were diluted into 1-liter volumes of fresh YPD medium, grown for 24 hours at 30° C. to an OD600 nm of approximately 0.8 and collected by centrifugation. After washing with distilled water, the cells were converted to spheroplasts with Zymolyase 20T (ICN) (Kim et al., 1994, supra) and intact vacuoles were isolated by flotation centrifugation of spheroplast lysates on Ficoll 400 step gradients as described by Roberts et al. (1991, Methods. Enzymol. 194:644-661). Both the spheroplast lysis buffer and Ficoll gradients contained 2 mg/ml bovine serum albumin, 1 μg/ml aprotinin, 1 μg/ml leupeptin, 1 μg/ml pepstatin, and 1 mM PMSF to minimize proteolysis. The resulting vacuole fraction was vesiculated in 5 mM MgCl2, 25 mM KCl, 10 mM Tris-Mes (pH 6.9) containing 2 mg/ml bovine serum albumin, 1 μg/ml aprotinin, 1 μg/ml leupeptin, 1 μg/ml pepstatin, and 1 mM PMSF, pelleted by centrifugation at 37,000× g for 25 min, and resuspended in suspension medium (1.1 M glycerol, 2 mM dithiothreitol, 1 mM Tris-EGTA, 2 mg/ml bovine serum albumin, 1 μg/ml aprotinin, 1 μg/ml leupeptin, 1 μg/ml pepstatin, 1 mM PMSF, 5 mM Tris-Mes, pH 7.6) (Kim et al., 1995, J. Biol. Chem. 270:2630-2635).
(§2) Unless otherwise indicated, [^3 H]DNP-GS uptake was measured at 25° C. in 200 μl reaction volumes containing 3 mM ATP, 3 mM MgSO4, 5 μM gramicidin-D, 10 mM creatine phosphate, 16 units/ml creatine kinase, 50 mM KC 1, 1 mg/ml bovine serum albumin, 400 mM sorbitol, 25 mM Tris-Mes (pH 8.0), and 66.2 μM [^3 H]DNP-GS (8.7 mCi/mmol) (Li et al., 1995, supra). […] Uptake was initiated by the addition of vacuolar membrane vesicles (10-15 μg of membrane protein), brief mixing of the samples on a vortex mixer and uptake was then allowed to proceed for 1-60 minutes. Uptake was terminated by the addition of 1 ml of ice-cold wash medium (400 mM sorbitol, 3 mM Tris-Mes, pH 8.0) and vacuum filtration of the suspension through prewetted Millipore HA cellulose nitrate membrane filters (pore diameter, 0.45 μm). The filters were rinsed twice with 1 ml of ice-cold wash medium and air-dried, and radioactivity was determined by liquid scintillation counting in BCS mixture (Amersham Corp.). Nonenergized [^3 H]DNP-GS uptake and extravesicular solution trapped on the filters were enumerated by the same procedure except that ATP and Mg^2 +were omitted from the uptake medium.

[2] = target: T1, YCF1 (vacuolar membrane vesicles purified from DTY165 cells) (Saccharomyces cerevisiae, UniProt P39109); assay: [3H]DNP-GS uptake by vacuolar membrane vesicles purified from DTY165 cells; assay type: biochemical; conditions: for DNP-GS uptake as percentage of control plus the compound indicated: 10 min
T1 construct: endogenous in cells; host or cells: S. cerevisiae DTY165 (wild type YCF1), vacuolar membrane vesicles
Procedure: as §1, §2

[3] = target: T1, YCF1 (vacuolar membrane vesicles purified from DTY165 cells); assay: biochemical; assay type: biochemical; conditions: for 109Cd.GS2 uptake as percentage of control: 10 min; for 109Cd uptake of Mono-Q fraction: 5 μM gramicidin-D
Procedure: (§3) In experiments involving cadmium transport, dithiothreitol and EGTA were removed from the suspension medium to prevent the attenuation of YCF1-dependent Cd^2+ transport otherwise exerted by these compounds. Vesiculated vacuolar membranes were subjected to three cycles of 50-fold dilution into simplified suspension medium (1.1 M glycerol, 5 mM Tris-Mes, pH 8.0), centrifugation at 100,000× g for 35 minutes and resuspension in the same medium before use.
(§4) Singly radiolabeled ^109 Cd.GSn and doubly radio-labeled ^109 Cd[^3 H].GS^n complexes were prepared by sequential gel-filtrationand anion-exchange chromatography of the reaction products generated by incubating 20 mM ^109 CdSO4 (78.4 mCi/mmol) with 40 mM GSH or 40 mM [^3 H]GSH (240 mCi/mmol) in 15 ml 10 mM phosphate buffer (pH 8.0) containing 150 mM KNO3 at 45° C. for 24 hours. For gel-filtration, 2 ml aliquots of the reaction mixture were applied to a column (40×1.5 cm ID) packed with water-equilibrated Sephadex G-1 5, eluted with deionized water and ^109 Cd and/or ^3 H in the fractions was measured by liquid scintillation counting. The fractions encompassed by each of the two ^109 Cd.GSn peaks identified were pooled, lyophilized and redissolved in 4 ml of loading buffer (5 mM Tris-Mes, pH 8.0). For anion-exchange chromatography, 0.5 ml aliquots of the resuspended lyophilizates from gel-filtration chromatography were applied to a Mono-Q HR5/5 column (Pharmacia) equilibrated with the same buffer. Elution was with a linear gradient of NaCl (0.5 ml/minute; 0-500 mM) dissolved in loading buffer. The individual fractions corresponding to the major peaks of ^109 Cd obtained from the Mono-Q column (one each for the peaks resolved by gel-filtration chromatography) were pooled, lyophilized and resuspended in 4 ml deionized water after liquid scintillation counting.
(§5) MgATP-energized, uncoupler-insensitive ^109 Cd^2+ uptake by vacuolar membrane vesicles was measured at 25° C. in 200 μl reaction volumes containing 3 mM ATP, 3 mM MgSO4, 5 μM gramicidin-D, 10 mM creatine phosphate, 16 units/ml creatine kinase, 50 mM KCl, 400 mM sorbitol, 25 mM Tris-Mes (pH 8.0) and the indicated concentrations of ^109 CdSO4, GSH or ^109 Cd- and/or ^3 H-labeled purified Cd.GSn complexes as described herein except that the wash media contained 100 μM CdSO4 in addition to sorbitol (400 mM) and Tris-Mes (3 mM, pH 8.0).

[4] = tested on: vacuolar membrane vesicles purified from DTY167 cells (ycf1Δ mutant); assay type: biochemical, Saccharomyces cerevisiae; conditions: for 109Cd.GS2 uptake as percentage of control: 10 min; for 109Cd uptake of Mono-Q fraction: 5 μM gramicidin-D
Procedure: as §3, §4, §5

[5] = tested on: vacuolar GS-X pump (vacuolar membrane vesicles, V. radiata hypocotyls); assay: GS-conjugate uptake by vacuolar membrane vesicles from etiolated hypocotyls of V. radiata; assay type: biochemical, Vigna radiata; conditions: 65 μM
Procedure: Values shown are means ±SE (n=3).
Vacuolar membrane vesicles were purified from etiolated hypocotyls of V. radiata cv.
Unless otherwise indicated, [^3 H]medicarpin or [3H]medicarpin-GS uptake was measured at 25° C. in 200 μl reaction volumes containing 3 mM ATP, 3 mM MgSO4, 10 mM creatine phosphate, 16 U/ml creatine kinase, 50 mM KCl, 0.1% (w/v) BSA, 400 mM sorbitol and 25 mM Tris-Mes buffer, pH 8.0. Uptake was initiated by the addition of 12 μl membrane vesicles (30-40 μg protein) and brief mixing of the samples on a vortex mixer. Uptake was terminated by the addition of 1 ml ice-cold wash medium (400 mM sorbitol, 3 mM Tris-Mes, pH 8.0) and vacuum filtration of the suspension through prewetted HA cellulose nitrate filters (pore diameter 0.45 μm). The filters were rinsed twice with a 1 ml ice-cold wash medium, air-dried and radioactivity was determined by liquid scintillation counting.

[6] = 5 μM gramicidin D, read-out: I50 for MgATP-dependent, uncoupler-insensitive DNP-GS uptake
[7] = 66.2 μM DNP-GS, 3 mM MgATP (omitted with MgAMP-PNP), MgAMP-PNP 3 mM, bafilomycin A1 0.5 μM, FCCP 5 μM, gramicidin D 5 μM, NH4Cl 1 mM
[8] = 50 μM 109Cd.GS2, bafilomycin A1 0.5 μM, FCCP 5 μM, gramicidin-D 5 μM, NH4Cl 1 mM
[9] = 50 μM (as Cd), pretreated 1:4 with 2-ME, 60° C., 10 minutes

T1 sequence (P39109 whole entry): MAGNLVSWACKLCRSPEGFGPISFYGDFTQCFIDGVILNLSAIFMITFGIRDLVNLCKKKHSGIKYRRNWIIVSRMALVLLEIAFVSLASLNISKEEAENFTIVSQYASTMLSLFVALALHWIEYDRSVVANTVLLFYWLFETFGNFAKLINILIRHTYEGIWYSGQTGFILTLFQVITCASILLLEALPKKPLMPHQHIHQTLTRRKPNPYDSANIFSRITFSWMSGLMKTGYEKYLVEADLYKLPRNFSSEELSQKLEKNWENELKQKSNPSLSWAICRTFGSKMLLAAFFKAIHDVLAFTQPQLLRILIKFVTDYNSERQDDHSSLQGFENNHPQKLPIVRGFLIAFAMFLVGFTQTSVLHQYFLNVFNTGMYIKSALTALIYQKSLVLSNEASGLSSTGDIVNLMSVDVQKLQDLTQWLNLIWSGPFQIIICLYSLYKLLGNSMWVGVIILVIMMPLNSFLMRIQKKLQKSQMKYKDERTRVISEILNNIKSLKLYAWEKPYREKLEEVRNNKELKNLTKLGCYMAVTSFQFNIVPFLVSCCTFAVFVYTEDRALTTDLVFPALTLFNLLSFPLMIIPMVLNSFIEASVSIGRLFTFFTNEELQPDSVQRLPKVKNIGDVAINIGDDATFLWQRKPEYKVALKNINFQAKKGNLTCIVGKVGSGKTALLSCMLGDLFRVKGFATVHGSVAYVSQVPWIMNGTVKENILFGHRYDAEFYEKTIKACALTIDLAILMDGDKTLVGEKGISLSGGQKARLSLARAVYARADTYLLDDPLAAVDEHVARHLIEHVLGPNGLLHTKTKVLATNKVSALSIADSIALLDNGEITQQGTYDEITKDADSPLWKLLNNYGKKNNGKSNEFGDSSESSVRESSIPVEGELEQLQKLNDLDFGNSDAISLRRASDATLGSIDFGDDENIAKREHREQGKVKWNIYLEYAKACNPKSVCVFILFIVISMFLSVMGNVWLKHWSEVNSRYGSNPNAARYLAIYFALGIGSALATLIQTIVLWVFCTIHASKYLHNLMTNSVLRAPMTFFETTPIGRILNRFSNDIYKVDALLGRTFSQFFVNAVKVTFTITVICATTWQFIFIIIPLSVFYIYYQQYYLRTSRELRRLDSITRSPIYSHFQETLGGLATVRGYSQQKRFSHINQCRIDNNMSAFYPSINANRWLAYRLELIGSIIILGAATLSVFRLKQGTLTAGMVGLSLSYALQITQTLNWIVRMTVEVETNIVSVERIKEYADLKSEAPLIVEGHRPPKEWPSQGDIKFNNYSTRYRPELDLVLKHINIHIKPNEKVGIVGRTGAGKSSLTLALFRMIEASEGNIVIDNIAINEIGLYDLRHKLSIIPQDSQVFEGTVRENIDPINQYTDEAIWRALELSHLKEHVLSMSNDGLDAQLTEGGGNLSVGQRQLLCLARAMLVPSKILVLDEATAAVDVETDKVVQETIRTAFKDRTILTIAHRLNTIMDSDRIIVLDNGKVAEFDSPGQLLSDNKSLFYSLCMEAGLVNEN

## CC[C@]1(O)C[C@@H]2CN(CCc3c([nH]c4ccccc34)[C@@](C(=O)OC)(c3cc4c(cc3OC)N(C)[C@H]3[C@@](O)(C(=O)OC)[C@H](OC(C)=O)[C@]5(CC)C=CCN6CC[C@]43[C@@H]65)C2)C1 [Vinblastine]
[1]; [6]
  IC50: > 500 µM
[2]; [6]
  IC50: 89 µM and 88.8 µM

## Cl.N [NH4 Cl, Ammonium chloride]
[1]; [7]
  DNP-GS uptake plus the compound indicated: 14.9 ± 0.7 nmol/mg/10 minutes
[1]; as Table 1 concentrations
  DNP-GS uptake as percentage of control plus the compound indicated: 96.8%
[3]; [8]
  109Cd.GS2 uptake plus addition: 89.8 ± 8.2 nmol/mg/10 minutes
[3]; as Table 7 concentrations
  109Cd.GS2 uptake as percentage of control: 84.8%
[3]; text to Table 7
  decrease of MgATP-dependent Cd.GS2 uptake: 15%
[4]; [8]
  109Cd.GS2 uptake plus addition: 10.0 ± 1.7 nmol/mg/10 minutes
[4]; as Table 7 concentrations
  109Cd.GS2 uptake as percentage of control: 57.8%
[2]; [7]
  DNP-GS uptake plus the compound indicated: 69.1 ± 2.9 nmol/mg/10 minutes
[2]; as Table 1 concentrations
  DNP-GS uptake as percentage of control plus the compound indicated: 88.9%

## N#CC(C#N)=NNc1ccc(OC(F)(F)F)cc1 [FCCP]
[1]
  DNP-GS uptake plus the compound indicated: 6.4 ± 0.3 nmol/mg/10 minutes
[1]; dty167 vacuolar membrane vesicles
  DNP-GS uptake as percentage of control plus the compound indicated: 41.8
[3]
  109Cd.GS2 uptake plus addition: 62.2 ± 11.4 nmol/mg/10 minutes
[3]; vacuolar membrane vesicles
  decrease of MgATP-dependent Cd.GS2 uptake: 22%
  109Cd.GS2 uptake as percentage of control: 58.8
[4]
  109Cd.GS2 uptake plus addition: 10.2 ± 1.6 nmol/mg/10 minutes
[4]; vacuolar membrane vesicles
  109Cd.GS2 uptake as percentage of control: 59.0
[2]
  DNP-GS uptake plus the compound indicated: 47.4 ± 1.7 nmol/mg/10 minutes
[2]; dty165 vacuolar membrane vesicles
  DNP-GS uptake as percentage of control plus the compound indicated: 61.0

## mono(glutathionato)cadmium [LMW-Cd.GS]
[3]; 50 μM (as Cd)
  109Cd uptake of Mono-Q fraction: 4.4 ± 0.8 nmol/mg/10 min
[3]; all of the concentrations examined
  uptake of LMW-109Cd.GS: negligible
[4]; 50 μM (as Cd)
  109Cd uptake of Mono-Q fraction: 3.9 nmol/mg/10 min

## COc1ccc2c(c1)OC1c3ccc(O)cc3OCC21 (stereo not shown) [medicarpin]
[5]; 3 mM MgATP
  uptake in the presence of MgATP: 16.7±3.6 nmol/mg/20 minutes
[5]; -MgATP
  uptake in the absence of MgATP: 7.4±1.3 nmol/mg/20 minutes

## N[C@@H](CCC(=O)N[C@@H](C[S][Cd][S]C[C@H](NC(=O)CC[C@H](N)C(=O)O)C(=O)NCC(=O)O)C(=O)NCC(=O)O)C(=O)O [HMW-Cd.GS, bis(glutathionato)cadmium]
[3]
  Vmax for MgATP-dependent, uncoupler-insensitive Cd.GS2 uptake: 157.2±60.7 nmol/mg/10 minutes
[3]; 50 μM 109Cd.GS2, no addition
  109Cd.GS2 uptake, control: 105.8 ± 12.4 nmol/mg/10 minutes
[3]; 50 μM (as Cd)
  109Cd uptake of Mono-Q fraction: 66.3 ± 2.7 nmol/mg/10 min
[3]; [9]
  109Cd uptake after 2-ME pretreatment: 11.9 ± 2.4 nmol/mg/10 min
[3]; listed as Cd.GS2
  Vmax for MgATP-dependent, uncoupler-insensitive Cd.GS2 uptake: 157.2±30.4 nmol/mg/10 minutes
[3]; read-out: Km for MgATP-dependent, uncoupler-insensitive Cd.GS2 uptake
  Km: 39.1 ± 14.1 µM
[4]; 50 μM 109Cd.GS2, no addition
  109Cd.GS2 uptake, control: 17.3 ± 2.7 nmol/mg/10 minutes
[4]; 50 μM (as Cd)
  109Cd uptake of Mono-Q fraction: 5.6 ± 2.6 nmol/mg/10 min
[4]; [9]
  109Cd uptake after 2-ME pretreatment: 4.4 ± 3.0 nmol/mg/10 min
